Measurements taken from patent US6737383B1, “Herbicidal oxadiazolidines” (priority 1999, dated 2004).

How the values were obtained:
cocklebur = test: Test B pre/postemergence cocklebur; type: in vivo, Xanthium strumarium
How it was run: (§1)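 Test chemicals in a non-phytotoxic solvent mixture with surfactant were sprayed preemergence onto planted seeds and postemergence onto plants 2 to 18 cm tall (1- to 4-leaf stage). After twelve to sixteen days in a greenhouse, injury was visually rated against untreated controls from 0 (no effect) to 10 (complete control).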

wheat = test: Test B pre/postemergence wheat; type: in vivo, Triticum aestivum
How it was run: as §1

pigweed = test: Test B pre/postemergence pigweed; type: in vivo, Amaranthus retroflexus
How it was run: as §1

purple nutsedge = test: Test B pre/postemergence purple nutsedge; type: in vivo, Cyperus rotundus
How it was run: as §1

bamyardgrass = test: Test B flood test barnyardgrass; type: in vivo, Echinochloa crus-galli
How it was run: (§2)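 Flood test on plants grown to the 2-leaf stage; treated plants kept in greenhouse twelve to sixteen days, then visually rated against controls on a 0 (no effect) to 10 (complete control) scale.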

morningglory = test: Test B pre/postemergence morningglory; type: in vivo, Ipomoea hederacea
How it was run: as §1

rape = test: Test B pre/postemergence rape; type: in vivo, Brassica napus
How it was run: as §1

giant foxtail = test: Test B pre/postemergence giant foxtail; type: in vivo, Setaria faberii
How it was run: as §1

wild oat = test: Test B pre/postemergence wild oat; type: in vivo, Avena fatua
How it was run: as §1

rice = test: Test B flood test rice; type: in vivo, Oryza sativa
How it was run: as §2

sugar beet = test: Test B pre/postemergence sugar beet; type: in vivo, Beta vulgaris
How it was run: as §1

duck salad = test: Test B flood test duck salad; type: in vivo, Heteranthera limosa
How it was run: as §2

velvetleaf = test: Test B pre/postemergence velvetleaf; type: in vivo, Abutilon theophrasti
How it was run: as §1

corn = test: Test B pre/postemergence corn; type: in vivo, Zea mays
How it was run: as §1

crabgrass = test: Test B pre/postemergence crabgrass; type: in vivo, Digitaria sanguinalis
How it was run: as §1

soybean = test: Test B pre/postemergence soybean; type: in vivo, Glycine max
How it was run: as §1

[1] = Postemergence, Rate 250 g/ha, scale 0 to 10
[2] = Postemergence, Rate 500 g/ha, scale of 0 to 10 where 0 is no effect and 10 is complete control
[3] = Preemergence, Rate 62 g/ha, scale of 0 to 10 where 0 is no effect and 10 is complete control
[4] = Preemergence, Rate 125 g/ha, scale of 0 to 10 where 0 is no effect and 10 is complete control
[5] = Preemergence, Rate 250 g/ha, scale 0 to 10, 0 is no effect, 10 is complete control
[6] = Preemergence, Rate 500 g/ha, scale 0 to 10, 0 is no effect, 10 is complete control
[7] = Rate 62 g/ha, Postemergence, scale 0 to 10, 0 no effect, 10 complete control
[8] = Rate 125 g/ha, Postemergence, scale 0 to 10, 0 is no effect, 10 is complete control
[9] = Rate 62 g/ha, flood test species, Pre-emergence, visual evaluation after twelve to sixteen days
[10] = Rate 125 g/ha, under heading Pre-emergence, flood test species, visual evaluation after twelve to sixteen days
[11] = Rate 250 g/ha, Pre-emergence (flood test species), scale 0 to 10, 0 is no effect, 10 is complete control
[12] = Rate 500 g/ha, Pre-emergence, flood test species, scale 0 to 10 (0 no effect, 10 complete control)

CC(C)N(C(=O)n1oc(=O)n(CCl)c1=O)c1ccc(F)cc1F [Compound 437]
Cocklebur plant response rating (cocklebur; [1]): 0
Cocklebur plant response rating (cocklebur; [2]): 1
Plant response rating, Cocklebur (cocklebur; [3]): 0
Plant response rating, Cocklebur (cocklebur; [4]): 0
Cocklebur plant response rating (cocklebur; [5]): 0
Cocklebur plant response rating (cocklebur; [6]): 0
Cocklebur plant response rating (cocklebur; [7]): 0
Cocklebur plant response rating (cocklebur; [8]): 0
Wheat plant response rating (wheat; [1]): 0
Wheat plant response rating (wheat; [2]): 0
Plant response rating, Wheat (wheat; [3]): 0
Plant response rating, Wheat (wheat; [4]): 0
Wheat plant response rating (wheat; [5]): 0
Wheat plant response rating (wheat; [6]): 0
Wheat plant response rating (wheat; [7]): 0
Wheat plant response rating (wheat; [8]): 0
Redroot pigweed plant response rating (pigweed; [1]): 0
Redroot pigweed plant response rating (pigweed; [2]): 0
Plant response rating, Redroot pigweed (pigweed; [3]): 0
Plant response rating, Redroot pigweed (pigweed; [4]): 0
Redroot pigweed plant response rating (pigweed; [5]): 0
Redroot pigweed plant response rating (pigweed; [6]): 0
Redroot pigweed plant response rating (pigweed; [7]): 0
Redroot pigweed plant response rating (pigweed; [8]): 0
Nutsedge plant response rating (purple nutsedge; [1]): 0
Nutsedge plant response rating (purple nutsedge; [2]): 0
Plant response rating, Nutsedge (purple nutsedge; [3]): 0
Plant response rating, Nutsedge (purple nutsedge; [4]): 0
Nutsedge plant response rating (purple nutsedge; [5]): 0
Nutsedge plant response rating (purple nutsedge; [6]): 0
Nutsedge plant response rating (purple nutsedge; [7]): 0
Nutsedge plant response rating (purple nutsedge; [8]): 0
Plant response rating, Barnyardgrass (0 to 10 scale, 0 is no effect, 10 is complete control) (bamyardgrass; [9]): 0
Barnyardgrass plant response rating (0 to 10 scale, 0 is no effect, 10 is complete control) (bamyardgrass; [10]): 0
Barnyardgrass plant response rating (bamyardgrass; [11]): 0
Barnyardgrass plant response rating (bamyardgrass; [12]): 0
Morningglory plant response rating (morningglory; [1]): 4
Morningglory plant response rating (morningglory; [2]): 9
Plant response rating, Morningglory (morningglory; [3]): 0
Plant response rating, Morningglory (morningglory; [4]): 0
Morningglory plant response rating (morningglory; [5]): 0
Morningglory plant response rating (morningglory; [6]): 0
Morningglory plant response rating (morningglory; [7]): 0
Morningglory plant response rating (morningglory; [8]): 1
Rape plant response rating (rape; [1]): 0
Rape plant response rating (rape; [2]): 0
Plant response rating, Rape (rape; [3]): 0
Plant response rating, Rape (rape; [4]): 0
Rape plant response rating (rape; [5]): 0
Rape plant response rating (rape; [6]): 0
Rape plant response rating (rape; [7]): 0
Rape plant response rating (rape; [8]): 0
Giant foxtail plant response rating (giant foxtail; [1]): 0
Giant foxtail plant response rating (giant foxtail; [2]): 7
Plant response rating, Giant foxtail (giant foxtail; [3]): 0
Plant response rating, Giant foxtail (giant foxtail; [4]): 0
Giant foxtail plant response rating (giant foxtail; [5]): 0
Giant foxtail plant response rating (giant foxtail; [6]): 3
Giant foxtail plant response rating (giant foxtail; [7]): 0
Giant foxtail plant response rating (giant foxtail; [8]): 0
Wild oats plant response rating (wild oat; [1]): 0
Wild oats plant response rating (wild oat; [2]): 3
Plant response rating, Wild oats (wild oat; [3]): 0
Plant response rating, Wild oats (wild oat; [4]): 0
Wild oats plant response rating (wild oat; [5]): 0
Wild oats plant response rating (wild oat; [6]): 0
Wild oats plant response rating (wild oat; [7]): 0
Wild oats plant response rating (wild oat; [8]): 0
Plant response rating, Rice (0 to 10 scale, 0 is no effect, 10 is complete control) (rice; [9]): 0
Rice plant response rating (0 to 10 scale, 0 is no effect, 10 is complete control) (rice; [10]): 0
Rice plant response rating (rice; [11]): 0
Rice plant response rating (rice; [12]): 0
Sugarbeets plant response rating (sugar beet; [1]): 0
Sugarbeets plant response rating (sugar beet; [2]): 0
Plant response rating, Sugarbeets (sugar beet; [3]): 0
Plant response rating, Sugarbeets (sugar beet; [4]): 0
Sugarbeets plant response rating (sugar beet; [5]): 0
Sugarbeets plant response rating (sugar beet; [6]): 0
Sugarbeets plant response rating (sugar beet; [7]): 0
Sugarbeets plant response rating (sugar beet; [8]): 0
Plant response rating, Ducksalad (0 to 10 scale, 0 is no effect, 10 is complete control) (duck salad; [9]): 0
Ducksalad plant response rating (0 to 10 scale, 0 is no effect, 10 is complete control) (duck salad; [10]): 0
Ducksalad plant response rating (duck salad; [11]): 0
Ducksalad plant response rating (duck salad; [12]): 0
Velvetleaf plant response rating (velvetleaf; [1]): 0
Velvetleaf plant response rating (velvetleaf; [2]): 0
Plant response rating, Velvetleaf (velvetleaf; [3]): 0
Plant response rating, Velvetleaf (velvetleaf; [4]): 0
Velvetleaf plant response rating (velvetleaf; [5]): 0
Velvetleaf plant response rating (velvetleaf; [6]): 0
Velvetleaf plant response rating (velvetleaf; [7]): 0
Velvetleaf plant response rating (velvetleaf; [8]): 0
Corn plant response rating (corn; [1]): 0
Corn plant response rating (corn; [2]): 0
Plant response rating, Corn (corn; [3]): 0
Plant response rating, Corn (corn; [4]): 0
Corn plant response rating (corn; [5]): 0
Corn plant response rating (corn; [6]): 0
Corn plant response rating (corn; [7]): 0
Corn plant response rating (corn; [8]): 0
Crabgrass plant response rating (crabgrass; [1]): 1
Crabgrass plant response rating (crabgrass; [2]): 3
Plant response rating, Crabgrass (crabgrass; [3]): 0
Plant response rating, Crabgrass (crabgrass; [4]): 0
Crabgrass plant response rating (crabgrass; [5]): 0
Crabgrass plant response rating (crabgrass; [6]): 2
Crabgrass plant response rating (crabgrass; [7]): 0
Crabgrass plant response rating (crabgrass; [8]): 1
Soybean plant response rating (soybean; [1]): 0
Soybean plant response rating (soybean; [2]): 2
Plant response rating, Soybean (soybean; [3]): 0
Plant response rating, Soybean (soybean; [4]): 0
Soybean plant response rating (soybean; [5]): 0
Soybean plant response rating (soybean; [6]): 0
Soybean plant response rating (soybean; [7]): 0
Soybean plant response rating (soybean; [8]): 0
